These are literature values, as cited in US12376586B2, “Microcapsules comprising cinmethyln in the core and a polyurea derived from diphenylmethane diisocyanate or an oligomer thereof” (BASF Agro B.V., priority 2017, dated 2025).

Molecules are shown by their SMILES.

The conditions of data set [1]: at 20° C.
For data set [2] the following is noted: at 20° C. This is another data set of the same source.

In the case of `Cc1ccccc1CO[C@@H]1C[C@]2(C(C)C)CC[C@@]1(C)O2` (racemic) [Cinmethylin, (±)-2-exo-(2-methylbenzyloxy)-1-methyl-4-isopropyl-7-oxabicyclo[2.2.1]heptane], the solubility in water in data set [1] is recorded as 0,063 g·L^−1. Further, the vapor pressure in data set [2] is listed as 8.1·10^−3 Pa.
